Patent US20130023504A1, “Modulation of Prostaglandin/Cyclooxygenase Metabolic Pathways” (HUNTER-FLEMING LIMITED, priority 2006, published 2013)
Marks after values point to notes of the source that are not given here.

How the values were obtained:
COX-2 mRNA = COX-2 mRNA in human PBMC with and without TNF-α, quantitative RT-PCR; format: cell-based
Description: Whole blood was collected from donors in EDTA-supplemented pouches at the Etablissement Français du Sang (Brest, France). The PBMC were isolated then from whole blood under sterile conditions within 36 hours after collection. Gradient density centrifugation was carried out on Ficoll (Eurobio). After washing in RPMI 1640 medium (Eurobio), cells were suspended in RPMI 1640 medium supplemented with 10% heat-inactivated fetal calf serum (Eurobio), 2 mM glutamine (D. Dutscher), 100 U of penicillin/ml (D. Dutscher), and 100 μg of streptomycin/ml (D. Dutscher). Monocytes were selected by plastic adherence for 1 h and approximately 10^7 cells were plated in 6-well tissue culture plates (3 mL medium per well). All incubations were performed in a humidified incubator at 37° C. and 5% CO2. Cells were recovered and dispersed in 2 ml fresh incubation medium supplemented with either 7β-hydroxyEPIA, 7β-hydroxy-DHEA, or 7α-hydroxy-DHEA (in 20 μL ethanol) in the presence or absence of 0.01 μg/mL TNF-α (Sigma-Aldrich). Control incubations contained 20 μl ethanol but no steroid. Supernatants were collected after 4 h and 24 hours incubations for measurement of their PG contents and cells were used for subsequent RNA isolation. A single step extraction method using the Trizol Reagent (Invitrogen, Cergy-Pontoise, France) provided total RNA.
cDNAs were synthesized from TURBO DNase I—treated RNA (Ambion, Huntingdon, UK) using the Superscript first strand synthesis system kit (Invitrogen). RT-PCR amplification mixtures (50 μL) contained 2.5× RealMaster Mix/20×SYBR solution (11.25 μL) (Eppendorf, Le Pecq, France) and 200 nM forward and reverse primers. Reactions were run on a RealPlex ep gradient S mastercycler (Eppendorf). The cycling conditions were 10 minutes at 95° C. and 45 cycles at 95° C., 55° C. and 68° C. for 15 seconds, 30 seconds and 30 seconds, respectively. Each assay included a standard curve of four serial dilution points of control cDNA. The HPRT1 housekeeping gene was used for quantification. All oligonucleotide primers (Table 2) were synthesized by Genecust/Distribio (Evry, France). The specificity of the amplified product was monitored by examining the melting curve of the product and confirmed by analysis on agarose gel electrophoresis.
All assays were carried out in triplicate and results were plotted as mean±S.E.M. One-way analysis of variance was performed followed by Duncan's multiple range tests in order to compare the differences between groups. Differences were considered statistically significant when p<0.05.

[1] = system: control rats without colitis; experiment: Colonic prostaglandin levels and COX-2/PG synthase mRNA in control rats without colitis; format: in vivo, rat
Description: After a 7-day adaptation period, animals were divided into two control groups (sham-control and 7β-hydroxy-EPIA-treated control group and two colitis groups (colitis and 7β-hydroxy-EPIA-treated colitis). 7β-Hydroxy-EPIA (0.01, 0.1, and 1 mg/kg body weight dissolved in DMSO) or DMSO alone (vehicle) was administered i.p. once a day for 7 days, from day 0 to day 7. Colitis was induced from day 7 to 14 by addition of DSS (molecular weight 36-50 kDa; MP Biomedicals, France) to drinking water. The two control groups received tap water only.
Commercially available EIA kits were used for the determination of PGE2 levels (Oxford Biomedical Research, UK) and 15d-PGJ2 levels (Assay designs, Euromedex, France) in colonic supernatants obtained from fresh homogenates. Measurement of PGD2 levels was obtained using the prostaglandin D2-MOX EIA kit (Cayman Chemical, Euromedex). In this case, and prior to assay, the fresh samples were immediately treated with the MOX-HCl reagent which converted PGD2 into PGD2-MOX, thus preventing any further chemical degradation.
Total RNA from fresh colonic samples (300 mg) was extracted using Trizol Reagent (Invitrogen, Cergy-Pontoise, France). Poly(A) RNA was purified from total RNA with MicroPoly(A)Purist kit (Ambion, Huntingdon, UK). cDNA was synthesized using the Superscript first strand synthesis system kit (Invitrogen). Real-time PCR was performed using mixtures (25 μL) containing 2.5× RealMaster Mix/20×SYBR solution (11.25 μL) (Eppendorf, Le Pecq, France) and 300 nM forward and reverse primers. Reactions were run on a RealPlex ep gradient S mastercycler (Eppendorf). The cycling conditions were at 95° C. for 10 minutes and 40 cycles at 95° C., 55° C. and 68° C. for 15 seconds, 30 seconds and 30 seconds, respectively. Each assay included a standard curve of four serial dilution points of control cDNA. Oligonucleotide primers were synthesized by Genecust/Distribio (Evry, France). The specificity of the amplified product was monitored by examination of the product melting curve and confirmed by analysis on agarose gel electrophoresis. The levels of mRNA were expressed relative to that of the DMSO control, after normalization to HPRT1.

[2] = system: collagen-induced arthritis; experiment: Collagen-induced arthritis (CII/CFA), histopathology, clinical score, knee homogenate prostaglandins; format: in vivo, mouse

CC12CCC3C(C1CCC2=O)[C@@H](O)C[C@H]1C[C@@H](O)CCC31C (stereo partly drawn) [Compound 7β-OH-EPIA, 7β-hydroxy-EPIAndrosterone]
COX-2 (mRNA), mRNA production relative to controls (COX-2 mRNA; 1 nM + TNF-α (10 ng/mL), 4 h): 7.39 ± 0.282^c
COX-2 (mRNA), mRNA production relative to controls (COX-2 mRNA; 1 nM + TNF-α (10 ng/mL), 24 h): 2.74 ± 0.555^c
COX-2 (mRNA), mRNA production relative to controls (COX-2 mRNA; 1 nM, 4 h, without TNF-α): 0.56 ± 0.072^b
COX-2 (mRNA), mRNA production relative to controls (COX-2 mRNA; 1 nM, 24 h, without TNF-α): 0.82 ± 0.27^b
COX-2 (mRNA), mRNA production relative to controls (COX-2 mRNA; 10 nM + TNF-α (10 ng/mL), 4 h): 2.75 ± 0.147^d
COX-2 (mRNA), mRNA production relative to controls (COX-2 mRNA; 10 nM + TNF-α (10 ng/mL), 24 h): 0.94 ± 0.194^d
COX-2 (mRNA), mRNA production relative to controls (COX-2 mRNA; 10 nM, 4 h, without TNF-α): 0.94 ± 0.048
COX-2 (mRNA), mRNA production relative to controls (COX-2 mRNA; 10 nM, 24 h, without TNF-α): 1.66 ± 0.408
COX-2 (mRNA), mRNA production relative to controls (COX-2 mRNA; 100 nM + TNF-α (10 ng/mL), 4 h): 5.76 ± 0.660
COX-2 (mRNA), mRNA production relative to controls (COX-2 mRNA; 100 nM + TNF-α (10 ng/mL), 24 h): 0.67 ± 0.132^d
COX-2 (mRNA), mRNA production relative to controls (COX-2 mRNA; 100 nM, 4 h, without TNF-α): 1.10 ± 0.108
COX-2 (mRNA), mRNA production relative to controls (COX-2 mRNA; 100 nM, 24 h, without TNF-α): 1.05 ± 0.214
increase of colonic 15d-PGJ2 above basal levels ([1]; 0.1 mg/kg day 0 to day 7, day 2): 51 fold
increase in COX-2 mRNA levels ([1]; 0.1 mg/kg, at 15 h): 1.5 fold
mPGES-1 mRNA expression ([1]; 0.1 mg/kg, between 6 h and 15 h): increased transiently
H-PGDS mRNA synthesis ([1]; 0.1 mg/kg, course of the experiment): remained unchanged
PGE2 and PGD2 colonic tissue levels ([1]; control rats without colitis): did not alter
15d-PGJ2 in knee homogenates ([2]; 0.1 μg/kg day, D 20-50, Day 50): 78.96 ± 22.18 pg/mL
Clinical Score (joint swelling) ([2]; 0.1 μg/kg day, D 20-50, Day 50): 3.10 ± 2.96
PGE2/15d-PGJ2 ([2]; 0.1 μg/kg day, D 20-50, Day 50): 1.21
PGE2 in knee homogenates ([2]; 0.1 μg/kg day, D 20-50, Day 50): 95.61 ± 34.65 pg/mL
Histopathology Score (both paws on Day 50) ([2]; 1.0 μg/kg s.c. daily, treatment from Day 20-50): 0.60
animals completely clear of histopathological change in the paw joints ([2]; 10.0 μg/kg, treatment day 0 to day 30): 9 out of 10
Histopathology Score (both paws on Day 50) ([2]; 10.0 μg/kg, treatment from Day 0-30): 0.2*
Histopathology Score (both paws on Day 50) ([2]; 10.0 μg/kg, treatment from Day 20-50): 0.44
Histopathology Score (both paws on Day 50) ([2]; 100.0 μg/kg, treatment from Day 20-50): 0.85
